Reference: ChEMBL document CHEMBL1201862, “PubChem BioAssay data set” (2004)
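Five concentrations, 48 hours, 96-well plates. Abbreviation: GI50, concentration required for 50% inhibition of growth.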 Calls of active or inactive are those of the source. Cut-off read from the data, not from the text of the source: active = GI50 up to about 1.1 µM and inactive = higher.

Assays:
Test in all cases: DTP human tumour cell line panel, 48 h
SK-MEL-5 = tested on: SK-MEL-5
NCI-H226 = tested on: NCI-H226
RXF 393 = tested on: RXF 393
DU-145 = tested on: DU-145
LOX IMVI = tested on: LOX IMVI
786-0 = tested on: 786-0
U-251 = tested on: U-251
HL-60 = tested on: HL-60
NCI/ADR-RES = tested on: NCI/ADR-RES
SF-268 = tested on: SF-268
A498 = tested on: A498
MDA-MB-435 = tested on: MDA-MB-435
KM12 = tested on: KM12
SK-MEL-28 = tested on: SK-MEL-28
MCF7 = tested on: MCF7
MDA-MB-231 = tested on: MDA-MB-231
OVCAR-5 = tested on: OVCAR-5
SR = tested on: SR
MDA-N = tested on: MDA-N
COLO 205 = tested on: COLO 205

Measured: GI50

CCOc1cc2c(cc1O)/C(=N\OC)C[C@@H]1[C@@H]2CC[C@]2(C)[C@@H](O)CC[C@@H]12
active: SK-MEL-5 < 0.0253 µM | NCI-H226 0.106 µM | RXF 393 < 0.01 µM | DU-145 0.326 µM | LOX IMVI 0.122 µM | 786-0 < 0.0403 µM | U-251 0.135 µM | HL-60 0.00548 µM | NCI/ADR-RES 0.0319 µM | SF-268 0.625 µM | A498 0.0908 µM | MDA-MB-435 0.0282 µM | KM12 0.423 µM | MCF7 0.0238 µM | MDA-MB-231 0.685 µM | SR 0.0127 µM | MDA-N < 0.0163 µM
inactive: SK-MEL-28 1.61 µM | OVCAR-5 21.6 µM | COLO 205 16.3 µM

CCCCCCCCCCCCCCCCCCNc1ccn(C2OC(COP(=O)(O)OCC(COP(=O)(O)OCC3OC(n4cc(C)c(=O)[nH]c4=O)CC3N=[N+]=[N-])OCCCCCCCCCCCCCCCCCC)C(O)C2O)c(=O)n1 (centres undefined)
inactive: SK-MEL-5 86.5 µM | NCI-H226 > 100 µM | RXF 393 51.6 µM | DU-145 > 100 µM | LOX IMVI 21.2 µM | 786-0 54.1 µM | U-251 12.8 µM | HL-60 > 100 µM | NCI/ADR-RES > 100 µM | SF-268 50.6 µM | A498 > 100 µM | MDA-MB-435 87.1 µM | KM12 38.5 µM | SK-MEL-28 > 100 µM | MCF7 34.4 µM | MDA-MB-231 44.3 µM | OVCAR-5 76.9 µM | SR > 100 µM | MDA-N > 100 µM | COLO 205 54.5 µM

COC(=O)/C=C/C(=O)Nc1cc(Cl)c(Cl)cc1CC(=O)N(C)[C@H]1CCCC[C@@H]1N1CCCC1
inactive: SK-MEL-5 8.67 µM | NCI-H226 15.3 µM | RXF 393 4.01 µM | DU-145 5.02 µM | LOX IMVI 5.3 µM | 786-0 3.83 µM | U-251 14.8 µM | HL-60 2.06 µM | NCI/ADR-RES 14.7 µM | SF-268 18.7 µM | A498 14.4 µM | MDA-MB-435 5.61 µM | KM12 22.1 µM | SK-MEL-28 16.1 µM | MCF7 3.49 µM | MDA-MB-231 13.3 µM | OVCAR-5 15.8 µM | SR 1.95 µM | MDA-N 6.61 µM | COLO 205 1.54 µM

Cc1cc2ccc(OC(=O)c3ccc(NC(=N)N)cc3)cc2oc1=O
inactive: SK-MEL-5 43.8 µM | NCI-H226 26.4 µM | RXF 393 33.3 µM | DU-145 76.9 µM | LOX IMVI 30.8 µM | 786-0 25.1 µM | U-251 21.6 µM | HL-60 5.93 µM | NCI/ADR-RES > 100 µM | SF-268 25.2 µM | A498 21.2 µM | MDA-MB-435 20 µM | KM12 21.7 µM | SK-MEL-28 24 µM | MCF7 22.1 µM | MDA-MB-231 22 µM | OVCAR-5 34.3 µM | SR 22.5 µM | MDA-N 29.2 µM | COLO 205 23.7 µM

COc1cc([C@@H]2c3cc(O)c(OC)cc3C=C(C(N)=O)[C@H]2C(N)=O)ccc1O
inactive: SK-MEL-5 > 100 µM | NCI-H226 > 100 µM | RXF 393 > 100 µM | DU-145 > 100 µM | LOX IMVI > 100 µM | 786-0 > 100 µM | U-251 > 100 µM | HL-60 > 100 µM | NCI/ADR-RES > 100 µM | SF-268 > 100 µM | A498 > 100 µM | MDA-MB-435 > 100 µM | KM12 > 100 µM | SK-MEL-28 > 100 µM | MCF7 > 100 µM | MDA-MB-231 > 100 µM | OVCAR-5 > 100 µM | SR > 100 µM | MDA-N > 100 µM | COLO 205 > 100 µM

O=C1CSC(/C(=C\c2ccc(Cl)cc2)c2nc3ccccc3[nH]2)=N1
inactive: SK-MEL-5 12.1 µM | NCI-H226 6.93 µM | DU-145 13.4 µM | LOX IMVI 15.8 µM | 786-0 13.6 µM | U-251 12.3 µM | HL-60 26.5 µM | NCI/ADR-RES 19.1 µM | SF-268 5.08 µM | A498 4.19 µM | MDA-MB-435 17.9 µM | KM12 13.2 µM | SK-MEL-28 15.7 µM | MCF7 14.6 µM | MDA-MB-231 12.7 µM | OVCAR-5 17 µM | SR 36.3 µM | MDA-N 18.2 µM | COLO 205 19.1 µM
active: RXF 393 0.738 µM

c1cnc2c(c1)Nc1cnncc1S2
inactive: SK-MEL-5 > 100 µM | NCI-H226 86.9 µM | RXF 393 > 100 µM | DU-145 > 100 µM | LOX IMVI > 100 µM | 786-0 > 100 µM | U-251 > 100 µM | HL-60 > 100 µM | NCI/ADR-RES > 100 µM | SF-268 > 100 µM | A498 > 100 µM | MDA-MB-435 > 100 µM | KM12 > 100 µM | SK-MEL-28 > 100 µM | MCF7 > 100 µM | MDA-MB-231 > 100 µM | OVCAR-5 > 100 µM | SR 53.3 µM | MDA-N > 100 µM | COLO 205 > 100 µM

COc1cccc(/C=C2\SC(=S)N(/C=C3\C(=O)Oc4ccccc4C3=O)C2=O)c1O
inactive: SK-MEL-5 35.8 µM | NCI-H226 > 100 µM | RXF 393 59.4 µM | DU-145 74.5 µM | LOX IMVI 63.2 µM | 786-0 67.8 µM | U-251 31.5 µM | HL-60 41.2 µM | NCI/ADR-RES 41 µM | SF-268 46.7 µM | A498 11.9 µM | MDA-MB-435 24.7 µM | KM12 45.8 µM | SK-MEL-28 40.4 µM | MCF7 39.4 µM | MDA-MB-231 33.2 µM | OVCAR-5 > 100 µM | SR 30.6 µM | MDA-N 32.8 µM | COLO 205 85.7 µM

CCOC(=O)Nc1cc2c(c(N)n1)N=C(c1ccc3ccccc3c1)CN2
inactive: SF-268 1.92 µM | SK-MEL-28 1.95 µM | MDA-MB-231 2.39 µM | OVCAR-5 10.5 µM
active: SK-MEL-5 < 0.0164 µM | NCI-H226 0.34 µM | RXF 393 0.105 µM | DU-145 0.101 µM | LOX IMVI 0.0559 µM | 786-0 0.0809 µM | U-251 0.0339 µM | HL-60 0.0167 µM | NCI/ADR-RES 0.0335 µM | A498 0.861 µM | MDA-MB-435 < 0.01 µM | KM12 0.0715 µM | MCF7 0.192 µM | SR 0.0329 µM | MDA-N < 0.01 µM | COLO 205 0.499 µM

O=C(NNCC(F)(F)F)c1ccncc1
inactive: SK-MEL-5 > 100 µM | NCI-H226 > 100 µM | RXF 393 > 100 µM | DU-145 > 100 µM | LOX IMVI > 100 µM | 786-0 > 100 µM | U-251 > 100 µM | HL-60 > 100 µM | NCI/ADR-RES > 100 µM | SF-268 > 100 µM | A498 > 100 µM | MDA-MB-435 > 100 µM | KM12 > 100 µM | SK-MEL-28 > 100 µM | MCF7 > 100 µM | MDA-MB-231 > 100 µM | OVCAR-5 > 100 µM | SR > 100 µM | MDA-N > 100 µM | COLO 205 > 100 µM

Cc1c(/N=N/c2ccc([N+](=O)[O-])cc2)nc2scc(-c3ccccc3)n12
inactive: SK-MEL-5 > 100 µM | NCI-H226 > 100 µM | RXF 393 99.5 µM | DU-145 > 100 µM | LOX IMVI 57.1 µM | 786-0 > 100 µM | U-251 > 100 µM | HL-60 13.7 µM | NCI/ADR-RES 73.1 µM | SF-268 > 82.4 µM | A498 > 100 µM | MDA-MB-435 > 100 µM | KM12 53.5 µM | SK-MEL-28 > 100 µM | MCF7 49.4 µM | MDA-MB-231 > 100 µM | OVCAR-5 > 66.7 µM | SR 19.5 µM | MDA-N > 100 µM | COLO 205 > 100 µM

O=C(O)c1ccc(Nc2nc3cc(C(F)(F)F)ccc3nc2C(=O)O)cc1
inactive: SK-MEL-5 > 100 µM | NCI-H226 > 100 µM | RXF 393 > 100 µM | DU-145 > 100 µM | LOX IMVI > 100 µM | 786-0 > 100 µM | U-251 > 100 µM | HL-60 > 100 µM | NCI/ADR-RES > 100 µM | SF-268 93.3 µM | A498 > 100 µM | MDA-MB-435 > 100 µM | KM12 > 100 µM | SK-MEL-28 > 100 µM | MCF7 > 100 µM | MDA-MB-231 > 100 µM | OVCAR-5 > 100 µM | SR > 100 µM | MDA-N > 100 µM | COLO 205 > 100 µM

C/C(=C\CNc1ncnc2c1ncn2CCC(=O)OC(C)(C)C)CO
inactive: SK-MEL-5 > 100 µM | NCI-H226 > 100 µM | RXF 393 > 100 µM | DU-145 > 100 µM | LOX IMVI > 100 µM | 786-0 > 100 µM | HL-60 > 100 µM | NCI/ADR-RES > 100 µM | SF-268 > 100 µM | A498 > 100 µM | MDA-MB-435 > 100 µM | KM12 > 100 µM | SK-MEL-28 > 100 µM | MCF7 > 100 µM | MDA-MB-231 > 100 µM | OVCAR-5 > 100 µM | SR > 100 µM | MDA-N > 100 µM | COLO 205 > 100 µM

CC1c2ccccc2Cn2cc3c(c21)C(=O)c1cccc(OP(=O)(O)OCc2ccccc2)c1C3=O (centres undefined)
inactive: SK-MEL-5 > 100 µM | NCI-H226 > 100 µM | RXF 393 > 100 µM | DU-145 > 100 µM | LOX IMVI > 100 µM | 786-0 > 100 µM | U-251 > 100 µM | HL-60 > 52.5 µM | NCI/ADR-RES > 100 µM | SF-268 > 100 µM | A498 > 100 µM | MDA-MB-435 > 100 µM | KM12 > 100 µM | SK-MEL-28 > 100 µM | MCF7 71.9 µM | MDA-MB-231 > 100 µM | OVCAR-5 > 100 µM | SR > 66.5 µM | MDA-N > 100 µM | COLO 205 > 100 µM
